Laboratory results as given in patent US20180303092A1, “AMINE SALTS OF CARBOXYLIC ACID HERBICIDES” (Taminco BVBA, priority 2017, published 2018).

Assays:
Assay type in all cases: physicochemical
[1] = Maximum loading of herbicide amine salt in water (Karl-Fischer water content, HCl titration of amine); conditions: for Max Load amine g/L: amine in maximum loaded solution in water; for Max Load g ae/L: maximum loaded solution in water, acid equivalent of herbicide; for maximum loading: summary text b115
Text: Neutralizing acidic herbicides (e.g., 2,4-D, dicamba, glyphosate, glufosinate) with amines can result in the formation of highly water soluble salts. However, practical inconveniences may occur when adding liquid amines to the solid herbicides, such as the formation of wetted powder, poorly mixed slurries, two apparently non-mixed layers, etc. To efficiently prepare a salt, the method, shown as a flowchart in FIG. 1, has been developed.
Referring to FIG. 1, step 100 involves using a mass balance to weigh 25 g of the active ingredient (a solid acidic herbicide, such as 2,4-D or dicamba) in a glass bottle. An equimolar amount of a basic amine (typically a liquid) is added to this glass bottle. Last, 2 mL of water is added. After adding the three compounds, the bottle is capped and placed on a shaking device for at least 12 hours.
At step 109, theoretical neutralization has taken place. The salt concentration can be quantified by titration. To confirm that the solid layer is solid salt and the top layer is a saturated (max. loading) solution, a small amount of water is added (the amounts of water should be small enough to avoid a complete dissolution of the solid salt). After re-equilibrium during at least 12 hours of shaking, and under the condition that two phases are still present, the salt concentration is determined again. If salt concentrations are identical as the original values, then it can be concluded that a maximum loaded solution was obtained.
To determine maximum loading of the salt in water, the method shown in the flowchart of FIG. 1 was used. The resulting sample contained at least two layers: a top layer of liquid and a bottom layer of solid salt. A water and amine determination was made of the top layer.
To check the water content, a well-established method of Karl-Fischer was used. This method gives an accurate wt % of H2O in the sample.
To determine the amine content, HCl-titration was used. HCl (0.1 N) was used as the titrant, and methanol was used as the solvent. 100-400 mg of the sample was taken from the liquid layer so that only 10-20 mL of the titrant was needed. The result was given in an EP. The following calculation was used to obtain the amine wt %:
In general, the sample's liquid phase only contains three components: water, free amine, and the herbicide salt. Therefore, the following calculation was used to determine the salt wt %:
wt %salt=100−wt %amine−wt %water
The results below are reported in g a.e./L (acid equivalent). […] The results were calculated using the following equation: […]
The MMs in the equation above are molecular weights (g/mol). ρ is the density of the liquid (g/mL), which may be measured using the density meter Anton Paar DMA 4500. F is a factor that takes into account the amount of base or acid groups on the amine or acid, respectively.
The g amine/L reported below was calculated using the following equation: […]
25.02 g of dicamba herbicide was mixed with 4.16 g of 1,2-DAP and 5.88 g of water. The ingredients were shaken for a minimum of 24 hours at room temperature (20° C.) to obtain an oversaturated salt solution (with precipitated salt crystals). Theoretically, 1 mol of dicamba can be neutralized using 0.5 mol of 1,2-DAP. Water was gradually added until all the salt crystals were dissolved to form a maximum loaded clear solution. The loading of the active ingredient was determined based on the amine content by HCl titration and the water content by Karl-Fischer.
Using the same methodology as described in Example 1, high-loaded 2,4-D salt solutions were prepared.

[2] = Viscosity of max load amine salt solutions (Brookfield viscometer, nr. 87 spindle); conditions: 20° C.
Protocol: The viscosity of the solutions prepared as above was determined using the Brookfield nr. 87 spindle. The applied speed depended on the viscosity of the sample. The torque applied was 50-80% of the machine's maximum. The results are expressed as mPa.
(§1) Several amine herbicide formulations were prepared as described above in Examples 1 and 2. The viscosity of various formulations was measured using a Brookfield viscometer with nr.87 spindle at 20° C. Wettability was measured by visually measuring the contact angle after placing a standard droplet on a parafilm layer (hydrophobic).

[3] = Wetting properties: contact angle of a droplet of max load product on parafilm layer; conditions: droplet on hydrophobic parafilm, read by eye
Protocol: A visual test was used to determine the wetting property. FIG. 2 is an illustration of the test. A small droplet 11 of the max load product mentioned above was deposited by a syringe pointed vertically down onto a parafilm layer 10, which is hydrophobic. A profile picture of the droplet 11 was then captured by a camera. The approximate contact angle 13 of the droplet 11 with the parafilm layer 10 was then measured by eye using a protractor.
The wetting angle determines the surface energy or chemical affinity of the salt solution with the apolar reference material. A high wetting angle indicates a […] of hydrophobic surfaces.
as §1

[4] = dicamba amine salts, room temperature (20° C.)
[5] = dicamba amine salt concentrates

| Structure (SMILES) | Max Load amine g/L ([1]; dicamba amine salts) [amine g/L] | Max Load g ae/L [1, 4] [g ae/L] | maximum loading ([1]; dicamba amine salts) [g/L] | Viscosity [2, 5] | Wetting Angle [3, 5] [°] | Max Load amine g/L ([1]; 2,4-D amine salts) [amine g/L] | Max Load g ae/L ([1]; 2,4-D amine salts) [g ae/L] | Viscosity ([2]; 2,4-D amine salts) | Wetting Angle ([3]; 2,4-D amine salts) [°] | Maximum loading, amine ([1]; dicamba 1,2-DAP salt, Example 1) [g amine/L] |
| --- | --- | --- | --- | --- | --- | --- | --- | --- | --- | --- |
| COc1c(Cl)ccc(Cl)c1C(=O)O.NCCOCCO [Dicamba DGA salt, reference compound] | 435.5 | 854.9 | 854.9 | 562.5 mPa | 120 |  |  |  |  |  |
| CNC.COc1c(Cl)ccc(Cl)c1C(=O)O [Dicamba DMA salt, reference compound] | 211.1 | 1036.8 | 1036 | 58.8 mPa | 135 |  |  |  |  |  |
| C[N+](C)(C)CCO.O=C([O-])COc1ccc(Cl)cc1Cl [2,4-D Cbase salt, reference compound] |  |  |  |  |  | 315.6 | 195.0 | 12.4 mPa | 145 |  |
| CNC.O=C(O)COc1ccc(Cl)cc1Cl [2,4-D DMA salt, reference compound] |  |  |  |  |  | 264.4 | 936.1 | 38.8 mPa | 130 |  |
| CC(C)CN.COc1c(Cl)ccc(Cl)c1C(=O)O [Dicamba MIBA salt] | 475.0 | 713.7 |  | 46.1 mPa | 130 |  |  |  |  |  |
| CNCCO.COc1c(Cl)ccc(Cl)c1C(=O)O [Dicamba MMEA salt] | 357.7 | 928.8 |  | 3,967.0 mPa | 120 |  |  |  |  |  |
| CNCCO.O=C(O)COc1ccc(Cl)cc1Cl [2,4-D MMEA salt] |  |  |  |  |  | 302.5 | 774.3 | 21.2 mPa | 110 |  |
| CN(C)CCCN.O=C(O)COc1ccc(Cl)cc1Cl [2,4-D DMAPA salt] |  |  |  |  |  | 210.6 | 863.5 | 1,455.0 mPa | 125 |  |
| CC(N)CN.COc1c(Cl)ccc(Cl)c1C(=O)O.COc1c(Cl)ccc(Cl)c1C(=O)O [Dicamba 1,2-DAP salt] | 365.9 | 803.2 | 803.2 | 218.0 mPa | 105 |  |  |  |  | 365.9 |
| COc1c(Cl)ccc(Cl)c1C(=O)[O-].C[N+](C)(C)CCO [Dicamba Cbase salt] | 308.5 | 481.5 |  | 13.5 mPa | 115 |  |  |  |  |  |
| CN(C)CCO.O=C(O)COc1ccc(Cl)cc1Cl [2,4-D DMAE salt] |  |  |  |  |  | 316.9 | 624.7 | 74.0 mPa | 105 |  |
| CC(C)CN.O=C(O)COc1ccc(Cl)cc1Cl [2,4-D MIBA salt] |  |  |  |  |  | 183.5 | 497.8 | 60.1 mPa | 155 |  |
| CN(C)CCO.COc1c(Cl)ccc(Cl)c1C(=O)O [Dicamba DMAE salt] | 408.3 | 849.0 |  | 184.4 mPa | 115 |  |  |  |  |  |
